# Experimental data: patent US20240368191A1, “HETEROCYCLIC COMPOUNDS AND USES THEREOF” (Kumquat Biosciences Inc., priority 2021, published 2024)
# Assay: Metabolic (microsomal) stability assay
# Conditions: pooled liver microsomes, pH 7.4
row,SMILES,half-life at 0.5 μM [min]
1,"N#Cc1c(N)sc2c(F)ccc(-c3c(Cl)cc4c(N5CCN(CC6CC6)C6(CN(C(=O)n7cncn7)C6)C5)nc(OC[C@@]56CCCN5C[C@H](F)C6)nc4c3F)c12 [Compound A139, 2-amino-4-(6-chloro-4-(5-(cyclopropylmethyl)-2-(1H-1,2,4-triazole-1-carbonyl)-2,5,8-triazaspiro[3.5]nonan-8-yl)-8-fluoro-2-(((2R,7aS)-2-fluoro-tetrahydro-1H-pyrrolizin-7a(5H)-yl)methoxy)quinazolin-7-yl)-7-fluorobenzo[b]thiophene-3-carbonitrile]",> 10
2,"N#Cc1c(N)sc2c(F)ccc(-c3c(Cl)cc4c(N5CC6(CN(C(=O)n7cncn7)CCO6)C5)nc(OC[C@@]56CCCN5C[C@H](F)C6)nc4c3F)c12 [Compound A140, 4-(4-(8-(1H-1,2,4-triazole-1-carbonyl)-5-oxa-2,8-diaza-spiro[3.5]nonan-2-yl)-6-chloro-8-fluoro-2-(((2R,7aS)-2-fluoro-tetrahydro-1H-pyrrolizin-7a(5H)-yl)methoxy)quinazolin-7-yl)-2-amino-7-fluorobenzo-[b]thiophene-3-carbonitrile]",> 10
3,"N#CC[C@H]1CN(c2nc(OC[C@@]34CCCN3C[C@H](F)C4)nc3c(F)c(-c4ccc(F)c5sc(N)nc45)c(Cl)cc23)CCN1C(=O)n1cncn1 [Compound A145, 2-((2S)-4-(7-(2-amino-7-fluorobenzo[d]thiazol-4-yl)-6-chloro-8-fluoro-2-(((2R,7aS)-2-fluorotetrahydro-1H-pyrrolizin-7a(5H)-yl)methoxy)quinazolin-4-yl)-1-(1H-1,2,4-triazole-1-carbonyl)piperazin-2-yl)aceto-nitrile]",> 10
4,"Nc1nc2c(-c3c(Cl)cc4c(N5CCN(C(=O)n6cncn6)CC5)nc(OC[C@@]56CCCN5C[C@H](F)C6)nc4c3F)ccc(F)c2s1 [Compound A146, (4-(7-(2-amino-7-fluorobenzo-[d]thiazol-4-yl)-6-chloro-8-fluoro-2-(((2R,7aS)-2-fluoro-tetrahydro-1H-pyrrolizin-7a(5H)-yl)methoxy)quinazolin-4-yl)piperazin-1-yl)(1H-1,2,4-triazol-1-yl)methanone]",> 10
5,"Cc1ncn(C(=O)N2CCCC(Oc3nc(OC[C@@]45CCCN4C[C@H](F)C5)nc4c(F)c(-c5ccc(F)c6sc(N)c(C#N)c56)c(Cl)cc34)CC2)n1 (stereo partly drawn) [Compound A174, 2-amino-4-(6-chloro-8-fluoro-2-(((2R,7aS)-2-fluorotetra-hydro-1H-pyrrolizin-7a(5H)-yl)methoxy)-4-((1-(3-methyl-1H-1,2,4-triazole-1-carbonyl)-azepan-4-yl)oxy)quinazolin-7-yl)-7-fluorobenzo[b]thiophene-3-carbonitrile]",> 10
6,"N#Cc1c(N)sc2c(F)ccc(-c3c(Cl)cc4c(N5CCC6CN(C(=O)n7cncn7)CC65)nc(OC[C@@]56CCCN5C[C@H](F)C6)nc4c3F)c12 (stereo partly drawn) [Compound A178, 4-(4-(5-(1H-1,2,4-triazole-1-carbonyl)hexahydropyrrolo[3,4-b]pyrrol-1(2H)-yl)-6-chloro-8-fluoro-2-(((2R,7aS)-2-fluoro-tetrahydro-1H-pyrrolizin-7a(5H)-yl)methoxy)quinazolin-7-yl)-2-amino-7-fluorobenzo-[b]thiophene-3-carbonitrile]",> 10
7,"N#Cc1c(N)sc2c(F)ccc(-c3c(Cl)cc4c(N5CCC6C5CCCN6C(=O)n5cncn5)nc(OC[C@@]56CCCN5C[C@H](F)C6)nc4c3F)c12 (stereo partly drawn) [Compound A181, 4-(4-(4-(1H-1,2,4-triazole-1-carbonyl)octahydro-1H-pyrrolo[3,2-b]pyridin-1-yl)-6-chloro-8-fluoro-2-(((2R,7aS)-2-fluorotetrahydro-1H-pyrrol-izin-7a(5H)-yl)methoxy)quin-azolin-7-yl)-2-amino-7-fluoro-benzo[b]thiophene-3-carbonitrile]",> 10
8,"Nc1nc2c(-c3c(Cl)cc4c(N5CCC6(CN(C(=O)n7cncn7)C6)C5)nc(OC[C@@]56CCCN5C[C@H](F)C6)nc4c3F)ccc(F)c2s1 [Compound A201, (6-(7-(2-amino-7-fluorobenzo-[d]thiazol-4-yl)-6-chloro-8-fluoro-2-(((2R,7aS)-2-fluoro-tetrahydro-1H-pyrrolizin-7a(5H)-yl)methoxy)quinazolin-4-yl)-2,6-diazaspiro[3.4]octan-2-yl)(1H-1,2,4-triazol-1-yl)-methanone]",> 10
9,"C[C@@H]1CN(C(=O)n2cncn2)[C@@H](C)CN1c1nc(OC[C@@]23CCCN2C[C@H](F)C3)nc2c(F)c(-c3ccc(F)c4sc(N)nc34)c(Cl)cc12 [Compound A244, ((2S,5R)-4-(7-(2-amino-7-fluorobenzo[d]thiazol-4-yl)-6-chloro-8-fluoro-2-(((2R,7aS)-2-fluorotetrahydro-1H-pyrrolizin-7a(5H)-yl)methoxy)quinazolin-4-yl)-2,5-dimethylpiperazin-1-yl)(1H-1,2,4-triazol-1-yl)meth-anone]",> 10
10,"Nc1nc2c(-c3c(Cl)cc4c(N5CC6(CN(C(=O)n7cncn7)CCO6)C5)nc(OC[C@@]56CCCN5C[C@H](F)C6)nc4c3F)ccc(F)c2s1 [Compound A268, (2-(7-(2-amino-7-fluorobenzo-[d]thiazol-4-yl)-6-chloro-8-fluoro-2-(((2R,7aS)-2-fluoro-tetrahydro-1H-pyrrolizin-7a(5H)-yl)methoxy)quinazolin-4-yl)-5-oxa-2,8-diazaspiro[3.5]-nonan-8-yl)(1H-1,2,4-triazol-1-yl)methanone]",> 10
11,"Nc1nc2c(-c3c(Cl)cc4c(N5CCOC6(CN(C(=O)n7cncn7)C6)C5)nc(OC[C@@]56CCCN5C[C@H](F)C6)nc4c3F)ccc(F)c2s1 [Compound A273, (8-(7-(2-amino-7-fluorobenzo-[d]thiazol-4-yl)-6-chloro-8-fluoro-2-(((2R,7aS)-2-fluoro-tetrahydro-1H-pyrrolizin-7a(5H)-yl)methoxy)quinazolin-4-yl)-5-oxa-2,8-diazaspiro[3.5]-nonan-2-yl)(1H-1,2,4-triazol-1-yl)methanone]",> 10
12,"N#Cc1c(N)sc2c(F)ccc(-c3c(Cl)cc4c(N5CCC6(CN(C(=O)n7cncn7)C6)C5)nc(OC[C@@]56CCCN5C[C@H](F)C6)nc4c3F)c12 [Compound A277, 4-(4-(2-(1H-1,2,4-triazole-1-carbonyl)-2,6-diazaspiro[3.4]-octan-6-yl)-6-chloro-8-fluoro-2-(((2R,7aS)-2-fluorotetrahydro-1H-pyrrolizin-7a(5H)-yl)meth-oxy)quinazolin-7-yl)-2-amino-7-fluorobenzo[b]thiophene-3-carbonitrile]",> 10
13,"N#Cc1c(N)sc2c(F)ccc(-c3c(Cl)cc4c(N5CC6CCCN(C(=O)n7cncn7)C6C5)nc(OC[C@@]56CCCN5C[C@H](F)C6)nc4c3F)c12 (stereo partly drawn) [Compound A284, 4-(4-(1-(1H-1,2,4-triazole-1-carbonyl)octahydro-6H-pyrrolo-[3,4-b]pyridin-6-yl)-6-chloro-8-fluoro-2-(((2R,7aS)-2-fluoro-tetrahydro-1H-pyrrolizin-7a(5H)-yl)methoxy)quinazolin-7-yl)-2-amino-7-fluorobenzo-[b]thiophene-3-carbonitrile]",> 10
